For three compounds, Km results are on record in PMC8020424, “Characterization of D-xylose reductase, XyrB, from Aspergillus niger” (Biotechnology Reports, 2021).

Structures are written as SMILES. Read-outs that look alike come from different tables or passages of the source.

The subject of this test is T1, XyrB.
T1 construct: full-length intron-free codon-optimized gene in pET-28a(+), E. coli BL21(DE3)pLysS, HisTrap purified; AKR motif 22-277
As to the kind of experiment: NADPH consumption at […] nm, Michaelis-Menten fit. The class given is biochemical, Aspergillus niger. The note with it: 0.2 mM NADPH, PBS pH 7.0, 25 °C.

Consider `OC[C@H]1OC(O)[C@H](O)[C@@H](O)[C@H]1O` (stereo partly drawn) [D-galactose], for which the Km (read-out: Km) stood at 12.5 mM.
Take `OC1OC[C@H](O)[C@H](O)[C@H]1O` (stereo partly drawn) [L-arabinose]: under “read-out: Km”, the Km was determined as 9.9 mM.
As to `OC1OC[C@@H](O)[C@H](O)[C@H]1O` (stereo partly drawn) [D-xylose], where the note is “read-out: D-xylose / Km”, the Km came out at 3.3 mM.
